Measured values from paper PMC7358525, “Characterization of PF-6142, a Novel, Non-Catecholamine Dopamine Receptor D1 Agonist, in Murine and Nonhuman Primate Models of Dopaminergic Activation” (Frontiers in Pharmacology, 2020).

Key:
Type in all cases: in vivo
[1] = test system: ACh levels in the rat PFC; experiment: Prefrontal cortex acetylcholine levels via microdialysis, rat
Description: Adult male Sprague-Dawley rats (280–360 g) were obtained from Charles-River Laboratories, Raleigh, NC and male C57BL/6J DRD1a WT and D1 DA receptor knockout mice (DRD1a-905781) were obtained from The Jackson Laboratories (Bar Harbor, ME). Animals were housed on a 12-h light/dark cycle with free access to food and water and allowed to acclimate for at least 5 d after arrival. Aseptic technique was used during the surgical procedure in order to prevent infection. On the day of the procedure animals were anesthetized with isoflurane (4%) and their heads shaved. The animals were then placed into a Kopf stereotaxic frame, the surgical area disinfected by swabbing with Provodine solution, and the area isolated with a sterile surgical drape. Anesthesia was maintained with isoflurane (2.5%–3%) delivered through a nose cone using a Univentor 400 anesthesia unit. Animals were given a 0.1 ml subcutaneous (s.c.) injection of Metacam (NSAID, meloxicam, 5 mg/ml, Boehringer Ingelheim) as a post-operative analgesic. Marcaine (bupivacaine, 0.5%, Hospira, Lake Forest, IL), a long acting local anesthetic, was administered s.c. at the surgical area to minimize pain and discomfort. […]
(§1) For conventional analysis, ACh was analyzed by high performance liquid chromatography (HPLC) utilizing a modification of the BAS ACh-choline assay kit (BAS part # MF-8910). […]

[2] = test system: acetylcholine levels in the PFC of WT and D1 KO mice; experiment: Prefrontal cortex acetylcholine levels via microdialysis, WT and D1 KO mouse; settings: 10 mg/kg SC
Description: Adult male Sprague-Dawley rats (280–360 g) were obtained from Charles-River Laboratories, Raleigh, NC and male C57BL/6J DRD1a WT and D1 DA receptor knockout mice (DRD1a-905781) were obtained from The Jackson Laboratories (Bar Harbor, ME). Animals were housed on a 12-h light/dark cycle with free access to food and water and allowed to acclimate for at least 5 d after arrival. Aseptic technique was used during the surgical procedure in order to prevent infection. On the day of the procedure animals were anesthetized with isoflurane (4%) and their heads shaved. The animals were then placed into a Kopf stereotaxic frame, the surgical area disinfected by swabbing with Provodine solution, and the area isolated with a sterile surgical drape. Anesthesia was maintained with isoflurane (2.5%–3%) delivered through a nose cone using a Univentor 400 anesthesia unit. Animals were given a 0.1 ml subcutaneous (s.c.) injection of Metacam (NSAID, meloxicam, 5 mg/ml, Boehringer Ingelheim) as a post-operative analgesic. Marcaine (bupivacaine, 0.5%, Hospira, Lake Forest, IL), a long acting local anesthetic, was administered s.c. at the surgical area to minimize pain and discomfort.
A 1.5–2 cm incision was made along the midline of the skull, beginning from a point just behind the eyes and running posterior. The skin was retracted with hemostats and the skull was further exposed using blunt dissection with cotton swabs. Bleeding capillaries were cauterized, and the skull dried with a sterile gauze sponge.
A microdialysis guide cannula [Bioanalytical Systems Inc (BAS), West Lafayette, IN, part # MD-2251] was placed into a guide holder on the stereotaxic frame and positioned over “Bregma”. The guide cannula was positioned over the PFC (A-P, +3.2 mm; M-L, +0.7 mm, left, relative to bregma) and the location marked on the skull. Using a 0.7 mm burr, a hole was made in the skull at the cannula position. […]
as §1

[3] = test system: mPFC low frequency delta activity; experiment: mPFC low frequency delta field potential oscillation power, anesthetized rat
Procedure: Experiments were performed on n=10 adult male Sprague-Dawley rats (275–305 g) under urethane anesthesia (1.5 g/kg, i.p.). The femoral vein was cannulated for i.v. administration of drugs. A stimulation electrode was placed in the CA1/subiculum region (coordinates: A-P = +6.3 mm, M–L = +5.2 mm, D-V = +8.0 mm) using stereotactic methods and unilateral local field potential (LFP) was recorded by a metal monopolar macroelectrode placed into the medial PFC (mPFC; coordinates: A-P = +3.0 mm, M-L = +0.6 mm, D-V = +5.0 mm). […] Evoked responses to the first and the second stimuli were identified (P1 and P2, respectively) and the amount of PPF determined by the formula: (P2 amplitude/P1 amplitude). Waveform averages used to calculate PPF consisted of 60 consecutive stimuli. Five minutes were allowed between administration of each drug dose and the starting of the subsequent average of each 10-min period after each cumulative dose (0.1–1 mg/kg, IV). Disruption in power of LFP delta activity was measured as the percentage of power in low frequency (0–1.8 Hz) irregular activity in the total (0–4 Hz) delta power range. LFP power spectra were determined during periods concurrent with waveform averages and PPF calculation. Statistical significance was determined by means of two-tailed paired Student’s t-test.

[4] = Plasma exposure (PK), mouse; settings: 5.6 mg/kg SC, 1 h
Procedure: Across the set of experiments, PK was either collected from satellite animals or in separate, dedicated studies. In addition to plasma PK, exposures were obtained in brain tissue for rat and mouse, and plasma protein binding and brain tissue binding were measured. Using the measured exposures, partitioning, and binding parameters, and the […]

[5] = PK, brain exposure and plasma/brain tissue binding studies; settings: data not presented
Procedure: Across the set of experiments, PK was either collected from satellite animals or in separate, dedicated studies. In addition to plasma PK, exposures were obtained in brain tissue for rat and mouse, and plasma protein binding and brain tissue binding were measured. Using the measured exposures, partitioning, and binding parameters, and the
Exposures increased in a generally dose proportional manner across most of the doses used in the pharmacology studies, and inter animal variability was typically low. Exposures were obtained in brain tissues for rat and mouse, and plasma protein binding and brain tissue binding were measured.

For `Cc1cc(Oc2nccc3occc23)ccc1-c1c(C)ncc2nccn12` [PF-6142], the “PF-6142 mediated increase in cortical ACh after repeated dosing (AUC 75-180 min, day 5)” value ([1]; 10 mg/kg SC for five consecutive days) was “maintained”, the “cortical ACh levels, time course” value ([1]; PF-6142 10 mg/kg SC acute on day 5 after subchronic vehicle, vs 5 d vehicle) was “increased cortical ACh levels” and the “PFC ACh levels vs vehicle (AUC 75-180 min)” value ([2]; D1 KO mice) was “not in the KO group”. The “PFC ACh levels vs vehicle (AUC 75-180 min)” value ([2]; WT mice) was “increased ACh levels”, the “MK-801-induced increases in low frequency delta” value ([3]; PF-6142 0.1-1 mg/kg IV cumulative) was “dose-dependently reversed” and the “MK-801-induced increases in low frequency delta activity after SCH-23390 pretreatment” value ([3]; PF-6142 cumulative IV up to 3 mg/kg (p=0.11)) was “no effect”. For the same compound, the PF-6142 plasma concentration [4] was 332 ng/mL, the brain penetration ([5]; brain tissues of rat and mouse) was “fully brain penetrant” and the “unbound concentrations between the brain and plasma compartments” value ([5]; rat and mouse) was “approaching unity”.
